Values joined by “and” are separate entries in the source; they are usually repeats but may differ in a detail not shown here. Equal values may be shown once.
Columns and labels:
MM.1S cells = experiment: MM.1S cell survival, MTT assay; format: cell-based; conditions: Homo sapiens, MM1.S, 72 h, 72 hours compound exposure
BRD4 [1] = molecular target: T1, BRD4 (Homo sapiens, UniProt O60885); experiment: Differential Scanning Fluorimetry (DSF), stability of BRD4 upon ligand binding; conditions: for ΔTm at 4 µM / DSF ΔTm (° C.): 100 μM protein, 4 μM compound and 2% DMSO; for IC50: estimated
Description: DSF=Differential Scanning Fluorimetry; provides a measure of the increased stability of BRD4 upon ligand binding The DSF experiment was run at 100 μM protein, 4 μM compound and 2% DMSO.

HEK293 = HEK293 cell IC50; format: cell-based; conditions: Homo sapiens
JAK2 = molecular target: T2, JAK2 (Homo sapiens, UniProt O60674); experiment: JAK2 IC50 (RB, commercial kinase panel); format: biochemical
T2 construct: purchased
T2 sequence (O60674 whole entry): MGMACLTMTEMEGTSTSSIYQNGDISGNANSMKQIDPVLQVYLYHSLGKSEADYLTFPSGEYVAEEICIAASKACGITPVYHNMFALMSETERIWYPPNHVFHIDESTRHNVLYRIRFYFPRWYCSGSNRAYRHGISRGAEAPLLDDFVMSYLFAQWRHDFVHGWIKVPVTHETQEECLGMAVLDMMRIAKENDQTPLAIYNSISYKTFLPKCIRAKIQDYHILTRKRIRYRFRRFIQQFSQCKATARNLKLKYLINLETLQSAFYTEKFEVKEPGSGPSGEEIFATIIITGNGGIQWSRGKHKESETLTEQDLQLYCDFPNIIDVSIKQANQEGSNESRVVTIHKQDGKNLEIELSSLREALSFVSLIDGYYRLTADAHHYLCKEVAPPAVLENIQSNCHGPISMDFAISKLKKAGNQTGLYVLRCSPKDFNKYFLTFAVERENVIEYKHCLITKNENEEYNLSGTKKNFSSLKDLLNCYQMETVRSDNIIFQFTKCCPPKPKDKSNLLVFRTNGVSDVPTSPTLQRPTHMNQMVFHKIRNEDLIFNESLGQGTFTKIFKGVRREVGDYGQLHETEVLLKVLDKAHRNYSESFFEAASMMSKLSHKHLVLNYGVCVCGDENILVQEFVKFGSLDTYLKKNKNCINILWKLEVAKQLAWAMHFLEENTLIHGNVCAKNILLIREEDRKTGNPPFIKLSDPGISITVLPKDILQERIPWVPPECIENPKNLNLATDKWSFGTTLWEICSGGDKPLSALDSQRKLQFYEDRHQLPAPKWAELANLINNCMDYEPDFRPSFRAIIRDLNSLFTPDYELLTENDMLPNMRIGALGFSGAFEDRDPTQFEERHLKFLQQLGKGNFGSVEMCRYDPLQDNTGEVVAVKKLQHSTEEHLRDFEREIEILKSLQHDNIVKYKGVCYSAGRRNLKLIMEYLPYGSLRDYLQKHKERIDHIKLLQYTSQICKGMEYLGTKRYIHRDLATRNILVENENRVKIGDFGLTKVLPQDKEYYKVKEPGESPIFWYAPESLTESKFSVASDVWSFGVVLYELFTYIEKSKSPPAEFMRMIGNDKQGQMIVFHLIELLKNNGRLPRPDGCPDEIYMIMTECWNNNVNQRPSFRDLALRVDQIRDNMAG

SAOS-2 = SAOS-2 cell IC50; format: cell-based; conditions: Homo sapiens
UKE-1 = UKE-1 cell IC50; format: cell-based; conditions: UKE1
MV4-11 AML cells = experiment: MV-4-11 cell IC50 (antiproliferative activity); format: cell-based; conditions: Homo sapiens
Description: Cellular activity of promising compounds is assessed using MM.1S and MV4-11 AML cells using c-Myc levels as biomarker (6-12 hr treatment) and antiproliferative activity (48-72 hr treatment) as described (Ciceri et al., Dual kinase-bromodomain inhibitors for rationally designed polypharmacology. Nat Chem Biol 2014).

c-Myc in MM.1S cells = conditions: literature; cited from earlier work
BRDT = molecular target: T3, BRDT (Homo sapiens, UniProt Q58F21); experiment: BRDT IC50 (RB, commercial BRD panel); format: binding
T3 construct: purchased

BRD4 [2] = molecular target: T1, BRD4; experiment: BRD4 IC50 (RB, commercial BRD panel); format: binding; conditions: read-out: BRD4 IC50
BRD3 = molecular target: T4, BRD3 (Homo sapiens, UniProt Q15059); experiment: BRD3 IC50 (RB, commercial BRD panel); format: binding
T4 construct: purchased
T4 sequence (Q15059 whole entry): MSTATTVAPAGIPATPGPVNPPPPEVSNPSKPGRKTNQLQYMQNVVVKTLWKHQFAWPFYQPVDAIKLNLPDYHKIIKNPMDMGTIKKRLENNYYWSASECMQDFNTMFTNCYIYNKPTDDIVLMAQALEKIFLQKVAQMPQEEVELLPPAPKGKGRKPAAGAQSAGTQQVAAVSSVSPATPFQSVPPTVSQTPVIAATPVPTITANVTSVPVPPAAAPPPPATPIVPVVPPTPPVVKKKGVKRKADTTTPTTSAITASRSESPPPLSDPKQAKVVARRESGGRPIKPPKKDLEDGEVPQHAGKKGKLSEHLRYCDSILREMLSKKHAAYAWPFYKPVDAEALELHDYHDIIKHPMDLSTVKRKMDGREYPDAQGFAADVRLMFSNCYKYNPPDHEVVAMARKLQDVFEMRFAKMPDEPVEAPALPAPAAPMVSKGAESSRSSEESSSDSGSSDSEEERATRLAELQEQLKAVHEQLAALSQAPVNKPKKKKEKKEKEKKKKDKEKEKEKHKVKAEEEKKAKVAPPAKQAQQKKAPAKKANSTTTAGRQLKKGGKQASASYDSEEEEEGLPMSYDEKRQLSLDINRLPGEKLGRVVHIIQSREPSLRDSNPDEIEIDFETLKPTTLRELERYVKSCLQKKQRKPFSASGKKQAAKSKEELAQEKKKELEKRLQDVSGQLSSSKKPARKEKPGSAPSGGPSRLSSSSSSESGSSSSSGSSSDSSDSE

BRD2 = molecular target: T5, BRD2 (Homo sapiens, UniProt P25440); experiment: BRD2 IC50 (RB, commercial BRD panel); format: binding
T5 construct: purchased
T5 sequence (P25440 whole entry): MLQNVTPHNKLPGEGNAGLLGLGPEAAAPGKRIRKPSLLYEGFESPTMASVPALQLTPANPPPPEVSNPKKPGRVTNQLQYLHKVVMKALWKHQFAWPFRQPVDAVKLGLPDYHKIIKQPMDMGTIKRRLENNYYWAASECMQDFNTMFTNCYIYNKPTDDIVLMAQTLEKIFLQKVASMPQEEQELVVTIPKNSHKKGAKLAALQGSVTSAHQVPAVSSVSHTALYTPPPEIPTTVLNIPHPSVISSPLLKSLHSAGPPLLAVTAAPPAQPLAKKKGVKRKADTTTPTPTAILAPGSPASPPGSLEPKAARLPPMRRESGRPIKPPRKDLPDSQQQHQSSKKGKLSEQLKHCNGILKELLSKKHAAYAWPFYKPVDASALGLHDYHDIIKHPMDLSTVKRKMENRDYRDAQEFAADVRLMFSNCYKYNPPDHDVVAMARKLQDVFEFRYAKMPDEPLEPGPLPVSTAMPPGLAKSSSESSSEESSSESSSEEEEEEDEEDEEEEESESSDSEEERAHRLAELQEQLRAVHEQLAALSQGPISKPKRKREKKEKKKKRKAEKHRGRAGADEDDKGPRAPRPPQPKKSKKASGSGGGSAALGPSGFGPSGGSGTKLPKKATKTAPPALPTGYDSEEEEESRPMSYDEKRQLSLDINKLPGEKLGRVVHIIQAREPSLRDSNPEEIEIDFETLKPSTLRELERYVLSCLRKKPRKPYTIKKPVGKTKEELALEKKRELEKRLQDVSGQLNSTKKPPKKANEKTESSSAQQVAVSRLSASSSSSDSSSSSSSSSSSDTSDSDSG

FLT3 = molecular target: T6, FLT3 (Homo sapiens, UniProt P36888); experiment: FLT3 IC50 (RB, commercial kinase panel); format: biochemical
T6 construct: purchased
T6 sequence (P36888 27-993): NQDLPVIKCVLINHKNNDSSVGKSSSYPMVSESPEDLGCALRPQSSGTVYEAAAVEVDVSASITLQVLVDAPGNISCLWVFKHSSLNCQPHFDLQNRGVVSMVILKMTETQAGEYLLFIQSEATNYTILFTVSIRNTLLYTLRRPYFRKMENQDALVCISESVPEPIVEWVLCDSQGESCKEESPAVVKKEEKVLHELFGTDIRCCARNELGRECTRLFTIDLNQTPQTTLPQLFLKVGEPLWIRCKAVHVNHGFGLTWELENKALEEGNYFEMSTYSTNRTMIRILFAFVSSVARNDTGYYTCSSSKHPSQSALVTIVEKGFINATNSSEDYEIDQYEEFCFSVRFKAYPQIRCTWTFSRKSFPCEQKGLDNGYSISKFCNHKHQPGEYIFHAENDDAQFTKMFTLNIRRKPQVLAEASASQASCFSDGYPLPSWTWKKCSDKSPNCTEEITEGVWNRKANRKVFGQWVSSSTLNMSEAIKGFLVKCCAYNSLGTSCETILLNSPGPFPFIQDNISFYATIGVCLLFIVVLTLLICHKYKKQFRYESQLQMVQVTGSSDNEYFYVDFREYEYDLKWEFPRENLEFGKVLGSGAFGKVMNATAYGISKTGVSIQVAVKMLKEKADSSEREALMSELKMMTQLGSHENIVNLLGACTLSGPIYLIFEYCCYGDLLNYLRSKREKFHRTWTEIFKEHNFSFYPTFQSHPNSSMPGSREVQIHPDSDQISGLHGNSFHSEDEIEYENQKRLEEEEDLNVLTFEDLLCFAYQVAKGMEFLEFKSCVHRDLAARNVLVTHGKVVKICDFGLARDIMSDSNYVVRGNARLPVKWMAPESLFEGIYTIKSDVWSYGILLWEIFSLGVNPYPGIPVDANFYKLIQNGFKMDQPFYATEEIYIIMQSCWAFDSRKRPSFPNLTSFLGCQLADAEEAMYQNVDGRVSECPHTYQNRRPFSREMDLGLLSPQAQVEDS

Structure (SMILES)	ΔTm at 4 µM (BRD4 [1]) [°C]	IC50 (BRD4 [1])	IC50 (MM.1S cells) [µM]	IC50 (HEK293) [µM]	also measured
COc1cc(Nc2nc(Nc3ccc(N4CCN(C)CC4)cc3)ncc2Cl)ccc1Cl	4.8 ± 0.058	0.54 µM	0.45	1.4	–
COc1cc(Nc2nc(Nc3ccc(N4CCN(C)CC4)cc3)nc(C)c2C)ccc1Cl	4.1 ± 0.14	0.93 µM	–	0.84	IC50 (JAK2): 14 µM
COc1cc(Nc2nc(Nc3ccc(N4CCN(C)CC4)cc3)nc(C)c2C)cc(OC)c1OC	5.9 ± 0.14	0.23 µM	5.6	1.4	–
COc1cc(Nc2nc(Nc3ccc(N4CCN(C)CC4)cc3)ncc2Cl)c(OC)cc1Cl	0.073 ± 0.13	20.5 µM	–	–	–
CCc1cnc(Nc2ccc(N3CCN(C)CC3)cc2)nc1Nc1ccc(Cl)c(OC)c1	1.3 ± 0.11	7.98 µM	–	–	–
CCOc1cccc(Nc2nc(Nc3ccc(N4CCN(C)CC4)cc3)ncc2Cl)c1	4.3 ± 0.12	0.79 µM	–	–	–
COc1ccc(Nc2nc(Nc3ccc(N4CCN(C)CC4)cc3)ncc2C)cc1OC	5.6 ± 0.059	0.29 µM	–	–	–
CN1CCN(c2ccc(Nc3ncc(Cl)c(Nc4cccc(NS(=O)(=O)C5CC5)c4)n3)cc2)CC1	6.9 ± 0.15	0.11 µM	–	3.6	–
COc1cc(Nc2nc(Nc3ccc(N4CCN(C)CC4)cc3)ncc2C)cc(OC)c1Cl	7.6 ± 0.15	0.063 µM	1.1	–	–
CN1CCN(c2ccc(Nc3ncc(Cl)c(Nc4cccc(S(=O)(=O)NC(C)(C)CO)c4)n3)cc2)CC1	6.1 ± 0.15	0.2 µM	–	1.5	–
CN1CCN(c2ccc(Nc3nc4c(c(Nc5cccc(NS(=O)(=O)C(C)(C)C)c5)n3)CCCC4)cc2)CC1	6.9 ± 0.038	0.11 µM	1.7	–	IC50 (SAOS-2): 2.5 µM
Cc1cnc(Nc2ccc(C(=O)NC3CCN(C)CC3)cc2)nc1Nc1ccc(Cl)c(NS(=O)(=O)C(C)(C)C)c1	11 ± 0.12	0.0061 µM and 0.0046 µM	–	–	IC50 (UKE-1): 1.6 µM; DSF ΔTm (° C.) (BRD4 [1]): 11 ± 0.12 11 ± 0.12 °C; IC50 (MV4-11 AML cells): 0.071 µM
CC[C@@H]1C(=O)N(C)c2cnc(Nc3ccc(C(=O)NC4CCN(C)CC4)cc3OC)nc2N1C1CCCC1 [BI2536]	–	–	–	–	downregulation of c-Myc (c-Myc in MM.1S cells): strong downregulation of c-Myc
Cc1cnc(Nc2ccc(N3CCN(C)CC3)cc2)nc1Nc1cccc(S(=O)(=O)NC(C)(C)C)c1 [TG101209]	–	–	–	–	downregulation of c-Myc (c-Myc in MM.1S cells): strong downregulation of c-Myc
Cc1cnc(Nc2ccc(OCCN3CCCC3)cc2)nc1Nc1cccc(S(=O)(=O)NC(C)(C)C)c1 [TG101348]	–	–	–	–	downregulation of c-Myc (c-Myc in MM.1S cells): strong downregulation of c-Myc

More lines, main results first:

ΔTm at 4 µM (BRD4 [1]) [°C]	IC50 (BRD4 [1])	Structure (SMILES)	IC50 (MM.1S cells) [µM]	IC50 (HEK293) [µM]	also measured
5.3 ± 0.064	0.37 µM	Cc1nc(Nc2ccc(N3CCN(C)CC3)cc2)nc(Nc2cccc(S(=O)(=O)NC(C)(C)C)c2)c1C	–	120	–
6.7 ± 0.11	0.13 µM	Cc1cnc(Nc2ccc(N3CCN(C)CC3)cc2)nc1Nc1cccc(NS(=O)(=O)C2CC2)c1	0.6	1	–
5.2 ± 0.02	0.4 µM	COc1cc(Nc2nc(Nc3ccc(N4CCN(C)CC4)cc3)ncc2Cl)cc(OC)c1OC	–	2	–
2.6 ± 0.15	2.94 µM	CN1CCN(c2ccc(Nc3ncc(Cl)c(Nc4ccc5c(c4)OCCO5)n3)cc2)CC1	–	–	–
0.073 ± 0.083	20.5 µM	CN1CCN(c2ccc(Nc3ncc(Cl)c(Nc4ccc5c(c4)OCO5)n3)cc2)CC1	–	–	–
1.68 ± 0.078	5.96 µM	COc1cccc(Nc2nc(Nc3ccc(N4CCN(C)CC4)cc3)ncc2Cl)c1	–	–	–
7.3 ± 0.099	0.079 µM	Cc1cnc(Nc2ccc(N3CCN(C)CC3)cc2)nc1Nc1cccc(S(=O)(=O)NC2CC2)c1	1.2	1.2	–
6.4 ± 0.15	0.16 µM	CN1CCN(c2ccc(Nc3ncc(Cl)c(Nc4cccc(S(=O)(=O)NC5CC5)c4)n3)cc2)CC1	0.88	1.8	–
6.9 ± 0.1	0.11 µM	COc1cc(Nc2nc(Nc3ccc(N4CCN(C)CC4)cc3)ncc2C)cc(OC)c1OC	–	0.97	–
6.5 ± 0.18	0.15 µM	Cc1cnc(Nc2ccc(N3CCN(C)CC3)cc2)nc1Nc1cccc(S(=O)(=O)NC(C)(C)CO)c1	–	3.6	–
5.5 ± 0.17	0.32 µM	Cc1nc(Nc2ccc(N3CCN(C)CC3)cc2)nc(Nc2cccc(S(=O)(=O)NC(C)(C)CO)c2)c1C	–	4.3	–
4.9 ± 0.13	0.5 µM	COc1cc(Nc2nc(Nc3ccc(N4CCN(C)CC4)cc3)nc3ccccc23)ccc1Cl	–	1.7	–
10 ± 0.11	0.0074 µM and 0.0099 µM	Cc1cnc(Nc2ccc(C3CCN(C)CC3)cc2)nc1Nc1ccc(Cl)c(NS(=O)(=O)C(C)(C)C)c1	–	–	IC50 (UKE-1): 0.47 µM; DSF ΔTm (° C.) (BRD4 [1]): 10 ± 0.11 10 ± 0.11 °C; IC50 (MV4-11 AML cells): 0.098 µM
9.91 ± 0.039	0.0405 µM	CN1CCC(NC(=O)c2ccc(Nc3ncc(F)c(Nc4ccc(Cl)c(NS(=O)(=O)C(C)(C)C)c4)n3)cc2F)CC1	0.12	–	–
12 ± 0.5	0.0105 µM	CN1CCC(NC(=O)c2ccc(Nc3ncc(Cl)c(Nc4ccc(Cl)c(NS(=O)(=O)C(C)(C)C)c4)n3)cc2F)CC1	0.09	–	–
6.83 ± 0.129	–	Cc1cnc(Nc2ccc(N3CCN(C)CC3)cc2)nc1Nc1cccc(S(=O)(=O)NC(C)(C)C)c1 [drawing 27]	–	–	IC50 (SAOS-2): 0.425 µM; DSF ΔTm (° C.) (BRD4 [1]): 7.55 ± 0.154 °C
9.57 ± 0.086	0.01 µM	Cc1cnc(Nc2ccc(N3CCN(C)CC3)cc2)nc1Nc1ccc(Cl)c(NS(=O)(=O)C(C)(C)C)c1 [drawing 109]	0.074	–	IC50 (UKE-1): 0.512 µM; IC50 (BRDT): 0.0278 µM; IC50 (BRD4 [2]): 0.00404 µM; IC50 (BRD3): 0.0165 µM; IC50 (BRD2): 0.0814 µM; IC50 (SAOS-2): 0.567 µM; IC50 (FLT3): 0.00971 µM; IC50 (JAK2): 0.0112 µM; IC50 (MV4-11 AML cells): 0.186 µM
